Data from publication PMC8365601, “Terphenyl-Based Small-Molecule Inhibitors of Programmed Cell Death-1/Programmed Death-Ligand 1 Protein–Protein Interaction” (Journal of Medicinal Chemistry, 2021).
Where two headings read alike, the source gives them in different places.

Legend:
human PD-L1 = target: T1, human PD-L1 (Homo sapiens, UniProt Q9NZQ7); experiment: 1H NMR titration with human PD-L1; type: binding; settings: molar ratio 1:1
T1 construct: pET-21b plasmid carrying the PD-L1 gene (amino acids 18–134); made in house; host or cells: Escherichia coli BL21
T1 sequence (Q9NZQ7 18-134): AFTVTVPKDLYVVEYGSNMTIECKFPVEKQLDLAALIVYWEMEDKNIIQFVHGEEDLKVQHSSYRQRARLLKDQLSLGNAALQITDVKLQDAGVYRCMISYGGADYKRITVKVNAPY
Protocol: NMR spectra were recorded in PBS pH 7.4 containing 10% (v/v) of D2O added to the samples to provide the lock signal. Water suppression was carried out using the WATERGATE sequence. All the spectra were recorded at 300 K using a Bruker AVANCE 600 MHz spectrometer with the cryo-platform. The spectra were recorded at the ligand/protein ratio of 1:1, unless stated otherwise. The samples were prepared by adding small amounts of a 50 mM ligand stock solution in DMSO to the protein solution (0.20 mL) of PD-L1 fragment at a concentration of 0.2 mM. Spectra were visualized using TopSpin 4.0.2.

PD-1/PD-L1 complex = PD-1/PD-L1 complex (Homo sapiens, UniProt Q9NZQ7); experiment: HTRF assay of PD-1/PD-L1 complex dissociation (CisBio); settings: for IC50: HTRF; for remaining activity at 0.005 µM: 2 h;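 as to all read-outs here: human PD-L1 at 5 nM with human PD-1 at 50 nM, TR-FRET signal read after 2 h at room temperature, background removed via negative control and scaled to positive control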
Chain of PD-1/PD-L1 complex (Q9NZQ7 19-238 limits assumed, one chain of several): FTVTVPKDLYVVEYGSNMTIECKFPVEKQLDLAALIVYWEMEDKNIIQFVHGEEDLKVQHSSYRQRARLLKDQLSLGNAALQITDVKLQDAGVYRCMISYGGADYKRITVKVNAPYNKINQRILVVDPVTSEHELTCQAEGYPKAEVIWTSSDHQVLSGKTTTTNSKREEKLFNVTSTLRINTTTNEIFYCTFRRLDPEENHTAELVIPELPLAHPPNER

PD-1/PD-L1 interaction = target: T2, PD-1/PD-L1 interaction (Homo sapiens, UniProt Q9NZQ7); experiment: PD-1/PD-L1 ICB assay (Jurkat-ECs with CHO/TCRAct/PD-L1 cells, luciferase); type: cell-based; settings: for EC50: Jurkat-ECs with CHO/TCRAct/PD-L1, 6 h, SI csv, read-out: Bioactivity (EC50 in the ICB assay)
T2 construct: host or cells: CHO-K1 (CHO/TCRAct/PD-L1) and Jurkat effector cells
T2 sequence (Q9NZQ7 19-290): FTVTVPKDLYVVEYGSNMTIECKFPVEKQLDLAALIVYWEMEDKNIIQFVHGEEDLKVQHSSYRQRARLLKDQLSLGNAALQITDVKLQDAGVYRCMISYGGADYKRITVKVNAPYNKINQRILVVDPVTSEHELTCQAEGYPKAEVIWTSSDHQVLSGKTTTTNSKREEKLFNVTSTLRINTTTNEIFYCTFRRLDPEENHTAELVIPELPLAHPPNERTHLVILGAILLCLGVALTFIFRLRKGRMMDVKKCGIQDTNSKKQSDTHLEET
Protocol: After a successful optimization of the terphenyl compounds, the activity of the optimized molecules 7a and 8a–j in a cellular context was assessed. To this end, we first performed the PD-1/PD-L1 ICB assay. In this assay, T-cell receptor (TCR)-mediated activation of Jurkat effector cells (Jurkat-ECs) is reduced by the presence of PD-L1, exposed at the surface of CHO/TCRAct/PD-L1 cells (Figure 3A).
(§1) The functional assay of the blockade of PD-1/PD-L1 interaction in vitro (PD-1/PD-L1 Blockade Bioassay, Promega) was performed according to the manufacturer’s protocol. CHO/TCRAct/PD-L1 cells or CHO/TCRAct or CHO-K1 cells were seeded on 96-well white plates at the density of 10,000 cells/well and the next day overlaid with Jurkat T cells (20,000 cells/well) in the presence of increasing concentrations of the compounds with DMSO only as a control (the concentration of DMSO was kept constant at 0.1%) or atezolizumab, as a positive control, anti-PD-L1 monoclonal antibody (Selleckchem). The 2.5-fold dilutions of atezolizumab were prepared in the assay buffer (RPMI 1640 + 1% FBS) on the day of the assay. Activation of the Jurkat T cells, reflected by luciferase activity, was monitored by luminescence measurements after 6 h of incubation (37 °C, 5% CO2), and 20 min of additional incubation with the Bio-Glo assay reagent (Promega) at room temperature. The luminescence was read on a Spark microplate reader (Tecan). The data are presented as fold induction of the luminescence signal relative to either untreated (for atezolizumab) or DMSO-treated (for compound) cells. Data points represent mean ± SD values from three to five independent experiments. Half-maximal effective concentrations (EC50 values) were calculated from the Hill curve fitting to the experimental data using Origin Pro 2020 software (OriginLab).

[1] = Cytotoxicity assay toward Jurkat-ECs; type: cell-based; settings: human, Jurkat-EC cells, SI csv
Protocol: The cytotoxicity of compounds was verified toward Jurkat-ECs since these cells provide the readout in the ICB assay and present a much higher degree of susceptibility to the compounds’ toxicity than CHO-K1 cells (not shown). Jurkat-ECs were seeded on 96-well transparent plates in the presence of increasing concentrations of the compounds with DMSO-treated cells as a control. The concentration of DMSO was kept constant (0.1%). After 48 h of incubation, a tetrazolium reagent, Biolog redox dye MIX MB (Biolog), was added according to the manufacturer’s protocol, and the culture plates were incubated for an additional 2 h (37 °C, 5% CO2). The absorbance was measured using a Spark microplate reader (Tecan) at 590 nm with 750 nm as a reference. The data are presented as Jurkat-EC survival relative to DMSO-treated control cells. Data points represent mean ± SD values from three independent experiments. Half-maximal effective concentrations (EC50 values) were calculated from the dose–response curve using OriginPro 2020 (OriginLab) software.

[2] = tested on: Jurkat-ECs alone or with CHO wt or CHO/TCRAct cells; experiment: ICB assay control where PD-L1 is absent; type: cell-based; settings: 6 h; Figure S1
Protocol: as §1, with “(OriginLab). […]” for “(OriginLab).”
of the Immune Checkpoint Blockade (ICB) assay, where 8h, 8i, and 8j were used to restore the activation of effector Jurkat-ECs. Jurkat-ECs were either kept alone, or contacted with one of the following cell lines: wild type CHO K1 cells (CHO wt), CHO K1 cells expressing TCR Activator (CHO/TCRAct), or CHO K1 cells expressing TCR Activator and […]. The cells were incubated with the indicated concentrations of the compounds for 6 hours and luminescence was measured as an indicator of TCR-dependent activation of Jurkat-ECs. The graphs present fold induction of the luminescence signal relative to DMSO-treated cells. […]

[3] = tested on: primary CD4+ and CD8+ T cells (PBMCs); experiment: T-cell activation (TCA) assay, PBMCs with CHO/TCRAct/PD-L1 cells, flow cytometry; type: cell-based, human; settings: 48 h; compounds 0.1, 0.5, 2.5 μM; mAbs 5 μg/mL
Protocol: A standard ICB assay relies on artificial Jurkat-ECs, which are surrogates of T-cells. To verify the potential of the compounds to reactivate the PD-L1-blocked primary T cells, a modified assay termed T-cell activation (TCA) was carried out.[32] In this assay, human primary peripheral blood mononuclear cells (PBMCs) are allowed to make contact with CHO/TCRAct/PD-L1 cells alone or in the presence of PD-1/PD-L1 blockers, and the activation of CD4^+ and CD8^+ T cell is monitored by flow cytometry.
Anticoagulant citrate dextrose-A-treated blood from healthy donors was purchased from the Regional Center of Blood Donation and Blood Therapy in Krakow, Poland. PBMCs were isolated from whole blood by density gradient centrifugation using Pancoll human separating solution (PAN-Biotech GmbH, Aidenbach, Germany). The separated cells were washed and resuspended in RPMI 1640 medium (Biowest) containing 10% FBS (Biowest). PBMCs were added at an amount of 3 × 10^5 to CHO, CHO/TCRAct, or CHO/TCRAct/PD-L1 cells preseeded on 24-well plates in the presence of either anti-PD-L1 mAbs (at the final concentration 5 μg/mL): durvalumab (Selleckchem), atezolizumab (Selleckchem), or avelumab (MedChemExpress) or tested compounds at the concentrations 0.1, 0.5, and 2.5 μM. Untreated cells were used as controls for antibody treatment, while DMSO-treated cells [0.1% (v/v)] were used as controls for compound treatment. The cells were incubated for 48 h (37 °C, 5% CO2) and then detached from the plates with TrypLe Select Enzyme (Thermo Fisher). PBMCs were stained for 20 min at room temperature with the antibodies: anti-CD4-FITC, anti-CD8-BV510, anti-CD69-APC, anti-CD25-PE, anti-HLA-DR-PerCP, and anti-PD1-PECy7 (Becton Dickinson Biosciences, BD). Following two washing steps, the cells were analyzed with a FACSCanto II cytometer. Data analysis was carried out with FlowJo software, followed by statistical significance calculations done with Origin Pro 2020 software (OriginLab). Statistical significance was analyzed with one-way analysis of variance (ANOVA), followed by the Fisher’s posthoc test: *p < 0.05, **p < 0.01, […].

[4] = read-out: % of undissociated complex at 5 nM
[5] = read-out: HTRF % of the undissociated complex at 5 nM
[6] = Table 4, <1.00 = limit of quantification reached

Row | change of hPD-L1 1H NMR spectrum on adding compound (human PD-L1) | EC50 (PD-1/PD-L1 interaction) [µM] | remaining activity at 0.005 µM (PD-1/PD-L1 complex; [4]) [%] | remaining activity at 0.005 µM (PD-1/PD-L1 complex; [5]) [%] | IC50 (PD-1/PD-L1 complex; [6]) [µM] | Molecule | EC50 at 48 h [1] [µM] | also measured
1 | broadening of the hPD-L1 proton signals | 2.82 ± 0.4 | 0 | 0 | – | COc1cc(-c2cccc(-c3ccc4c(c3)OCCO4)c2Cl)ccc1CNCCNC(C)=O [7a, N-(2-(((3′-(Benzo-1,4-dioxan-6-yl)-2′-chloro-3-methoxy-[1,1′-biphenyl]-4-yl)methyl)amino)ethyl)acetamide] | 3.19 ± 0.41 | complex dissociation (PD-1/PD-L1 complex; 5 nM ligand): complete complex dissociation; IC50 (PD-1/PD-L1 complex; Table 3): 0.00082 ± 2e-05 µM
2 | broadening of the hPD-L1 proton signals | – | 1 | 1 | – | CC(=O)NCCNCc1ccc(-c2cccc(-c3ccc4c(c3)OCCO4)c2Cl)cc1OCC#N [7e, N-(2-(((3′-(Benzo-1,4-dioxan-6-yl)-2′-chloro-3-(cyanomethoxy)-[1,1′-biphenyl]-4-yl)methyl)amino)ethyl)acetamide] | – | complex dissociation (PD-1/PD-L1 complex; 5 nM ligand): 99%
3 | – | 3.28 ± 0.6 | 8 | 8 | < 0.001 | COc1cc(-c2cccc(-c3ccc4c(c3)OCCO4)c2Cl)ccc1CNCCNC(=O)CN [8f, 2-Amino-N-(2-(((3′-(benzo-1,4-dioxan-6-yl)-2′-chloro-3-methoxy-[1,1′-biphenyl]-4-yl)methyl)amino)ethyl)acetamide] | 3.1 ± 0.22 | –
4 | – | 11.1 ± 4.35 | 32 | 32 | 0.00207 ± 4e-05 | COc1cc(-c2cccc(-c3ccc4c(c3)OCCO4)c2Cl)ccc1CNCCNS(C)(=O)=O [8g, N-(2-(((3′-(Benzo-1,4-dioxan-6-yl)-2′-chloro-3-methoxy-[1,1′-biphenyl]-4-yl)methyl)amino)ethyl)methanesulfonamide] | 4.47 ± 0.58 | –
5 | – | 2.57 ± 0.45 | 0 | 0 | < 0.001 | COc1cc(-c2cccc(-c3ccc4c(c3)OCCO4)c2Cl)ccc1CNC(CO)CO [8i, 2-(((3′-(Benzo-1,4-dioxan-6-yl)-2′-chloro-3-methoxy-[1,1′-biphenyl]-4-yl)methyl)amino)propane-1,3-diol] | 4.63 ± 0.35 | selectivity of PD-1/PD-L1-blocking activity versus cytotoxicity (PD-1/PD-L1 interaction; EC50 (tox.) vs EC50 (bio.), Figure 3F): highest selectivity; activation of Jurkat-ECs where PD-L1 is absent [2]: requires the presence of PD-L1

The next lines start with the molecule.

Row | Molecule | change of hPD-L1 1H NMR spectrum on adding compound (human PD-L1) | EC50 (PD-1/PD-L1 interaction) [µM] | remaining activity at 0.005 µM (PD-1/PD-L1 complex; [4]) [%] | remaining activity at 0.005 µM (PD-1/PD-L1 complex; [5]) [%] | IC50 (PD-1/PD-L1 complex; [6]) [µM] | EC50 at 48 h [1] [µM] | also measured
6 | Cc1c(-c2ccc(CO)cc2)cccc1-c1ccc2c(c1)OCCO2 [4a, (3′-(Benzo-1,4-dioxan-6-yl)-2′-methyl-[1,1′-biphenyl]-4-yl)methanol] | broadening of the hPD-L1 proton signals | – | – | – | – | – | IC50 (PD-1/PD-L1 complex; Table 1): 5.52 ± 0.04 µM
7 | COc1cc(-c2cccc(-c3ccc4c(c3)OCCO4)c2Cl)ccc1CN1CCN(C(=O)CN)CC1 [8d, 2-Amino-1-(4-((3′-(benzo-1,4-dioxan-6-yl)-2′-chloro-3-methoxy-[1,1′-biphenyl]-4-yl)methyl)piperazin-1-yl)ethan-1-one] | – | – | 5 | 5 | < 0.001 | – | % of the undissociated (remaining) complex (PD-1/PD-L1 complex; 5 nM ligand): 5%
8 | COc1cc(-c2cccc(-c3ccc4c(c3)OCCO4)c2Cl)ccc1CN1CCN(S(C)(=O)=O)CC1 [8e, 1-((3′-(Benzo-1,4-dioxan-6-yl)-2′-chloro-3-methoxy-[1,1′-biphenyl]-4-yl)methyl)-4-(methylsulfonyl)piperazine] | – | – | 88 | 88 | 0.104 ± 0.00217 | – | –
9 | avelumab: therapeutic anti-PD-L1 antibody | – | – | – | – | – | – | numbers of PD-1-positive T cells [3]: increases the expression of PD-1 on T-cells
10 | durvalumab: therapeutic anti-PD-L1 antibody | – | – | – | – | – | – | numbers of PD-1-positive T cells [3]: increases the expression of PD-1 on T-cells
